Data taken from paper PMC5677090, “Multiple Behavior Phenotypes of the Fragile-X Syndrome Mouse Model Respond to Chronic Inhibition of Phosphodiesterase-4D (PDE4D)” (Scientific Reports, 2017).

Molecular target: T1, PDE4B (Mus musculus, UniProt Q8VBU5)
T1 sequence (Q8VBU5 1-721): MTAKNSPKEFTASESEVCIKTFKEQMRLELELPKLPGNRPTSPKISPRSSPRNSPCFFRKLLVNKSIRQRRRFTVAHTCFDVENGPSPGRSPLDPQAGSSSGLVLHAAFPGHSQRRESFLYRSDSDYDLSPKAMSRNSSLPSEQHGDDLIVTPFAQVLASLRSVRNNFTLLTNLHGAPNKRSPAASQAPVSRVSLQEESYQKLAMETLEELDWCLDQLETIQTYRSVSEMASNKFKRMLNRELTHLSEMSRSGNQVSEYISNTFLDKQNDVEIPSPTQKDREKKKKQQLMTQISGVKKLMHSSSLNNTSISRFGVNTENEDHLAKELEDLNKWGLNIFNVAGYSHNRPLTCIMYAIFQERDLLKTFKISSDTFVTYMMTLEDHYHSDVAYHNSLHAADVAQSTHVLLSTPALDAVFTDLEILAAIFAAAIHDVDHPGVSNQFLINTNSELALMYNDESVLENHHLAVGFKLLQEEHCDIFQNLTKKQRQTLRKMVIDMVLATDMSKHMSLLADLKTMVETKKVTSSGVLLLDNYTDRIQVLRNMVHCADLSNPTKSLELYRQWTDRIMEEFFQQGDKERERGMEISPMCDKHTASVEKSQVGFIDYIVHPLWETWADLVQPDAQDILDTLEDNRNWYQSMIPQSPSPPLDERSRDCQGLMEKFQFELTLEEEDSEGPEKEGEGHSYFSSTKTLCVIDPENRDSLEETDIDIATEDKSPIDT
Assay: PDE4B inhibition IC50, selectivity comparison (assay details not given)
Assay type: biochemical

## O=C(O)Cc1ccc(Cc2cc(-c3cccc(Cl)c3)nc(C(F)(F)F)c2)cc1 [BPN14770]
  IC50: 2120 nM
